# Source: ChEMBL document CHEMBL5696442, “Discovery of type II inhibitors of TGFβ-activated kinase 1 (TAK1) and mitogen-activated protein kinase kinase kinase kinase 2 (MAP4K2)” (J Med Chem, 2015)
# Activity calls are given as the source filed them. The calls are words filed in the database; no cut-off is given here.
# Key:
# [1] = target: Cyclin-dependent kinase 5 (Homo sapiens) (UniProt Q00535); experiment: Inhibition of CDK5 Lys2 labeling site harbouring DLKPQNLLINR in human Huh-7 cell lysate at 1 uM by KiNativ Profiling analysis relative to control; type: subcellular
# [2] = target: Mitogen-activated protein kinase 3 (Homo sapiens) (UniProt P27361); experiment: Inhibition of Erk1 Lys2 labeling site harbouring DLKPSNLLINTTCDLK in human Huh-7 cell lysate at 1 uM by KiNativ Profiling analysis relative to control; type: subcellular
# [3] = target: T1, Serine/threonine-protein kinase TBK1 (Homo sapiens) (UniProt Q9UHD2); experiment: Inhibition of TBK1 Lys2 labeling site in human Huh-7 cell lysate at 1 uM by KiNativ Profiling analysis relative to control; type: subcellular
# T1 sequence (whole entry): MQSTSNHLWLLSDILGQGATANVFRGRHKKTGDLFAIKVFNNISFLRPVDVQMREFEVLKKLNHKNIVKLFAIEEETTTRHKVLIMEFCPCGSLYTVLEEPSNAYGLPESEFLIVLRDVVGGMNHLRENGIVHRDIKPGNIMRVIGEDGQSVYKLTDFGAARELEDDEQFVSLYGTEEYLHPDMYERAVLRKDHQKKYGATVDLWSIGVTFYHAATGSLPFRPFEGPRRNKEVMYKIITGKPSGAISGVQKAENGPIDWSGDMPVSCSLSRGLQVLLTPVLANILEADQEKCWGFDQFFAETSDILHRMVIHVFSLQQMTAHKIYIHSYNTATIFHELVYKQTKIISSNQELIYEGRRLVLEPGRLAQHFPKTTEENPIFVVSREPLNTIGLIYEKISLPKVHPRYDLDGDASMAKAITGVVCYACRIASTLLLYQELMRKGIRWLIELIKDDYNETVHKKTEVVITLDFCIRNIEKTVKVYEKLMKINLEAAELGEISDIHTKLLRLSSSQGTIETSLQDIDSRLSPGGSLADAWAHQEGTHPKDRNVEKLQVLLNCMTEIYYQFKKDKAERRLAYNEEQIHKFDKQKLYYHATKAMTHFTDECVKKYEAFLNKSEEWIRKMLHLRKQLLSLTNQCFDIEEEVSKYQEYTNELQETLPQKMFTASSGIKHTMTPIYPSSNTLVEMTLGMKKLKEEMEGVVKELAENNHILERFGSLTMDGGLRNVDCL
# [4] = target: Phosphatidylinositol 3-kinase catalytic subunit type 3 (Homo sapiens) (UniProt Q8NEB9); experiment: Inhibition of PIK3C3 ATP labeling site in human Huh-7 cell lysate at 1 uM by KiNativ Profiling analysis relative to control; type: subcellular
# [5] = target: Ribosomal protein S6 kinase alpha-1 (Homo sapiens) (UniProt Q15418); experiment: Inhibition of RSK1 domain2 Lys2 labeling site in human Huh-7 cell lysate at 1 uM by KiNativ Profiling analysis relative to control; type: subcellular
# [6] = target: T1, Serine/threonine-protein kinase TBK1 (Homo sapiens); experiment: Inhibition of TBK1 Lys1 labeling site in human Huh-7 cell lysate at 1 uM by KiNativ Profiling analysis relative to control; type: subcellular
# [7] = target: Serine/threonine-protein kinase WNK1 (Homo sapiens) (UniProt Q9H4A3); experiment: Inhibition of Wnk1 ACT labeling site in human Huh-7 cell lysate at 1 uM by KiNativ Profiling analysis relative to control; type: subcellular
# [8] = target: Serine/threonine-protein kinase Nek7 (Homo sapiens) (UniProt Q8TDX7); experiment: Inhibition of NEK7 Lys2 labeling site harbouring DIKPANVFITATGVVK in human Huh-7 cells at 1 uM by KiNativ Profiling analysis relative to control; type: cell-based
# [9] = target: T2, Aurora kinase A (Homo sapiens) (UniProt O14965); experiment: Inhibition of AURKA (unknown origin) at 10 uM by Ambit Kinomescan binding assay
# T2 sequence (whole entry): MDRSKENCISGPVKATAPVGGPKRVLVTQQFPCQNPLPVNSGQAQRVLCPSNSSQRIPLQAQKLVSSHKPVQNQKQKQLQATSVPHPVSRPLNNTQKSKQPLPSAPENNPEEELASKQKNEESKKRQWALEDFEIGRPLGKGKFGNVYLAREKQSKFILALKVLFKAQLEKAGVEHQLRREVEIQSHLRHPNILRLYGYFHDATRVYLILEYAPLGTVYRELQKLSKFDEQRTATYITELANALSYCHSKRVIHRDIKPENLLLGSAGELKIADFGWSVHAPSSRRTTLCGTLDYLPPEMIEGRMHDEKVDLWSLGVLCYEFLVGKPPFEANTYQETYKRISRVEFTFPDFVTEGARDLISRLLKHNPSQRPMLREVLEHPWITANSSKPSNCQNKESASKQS
# [10] = tested on: Epidermal growth factor receptor (Homo sapiens), P00533 [G719S]; experiment: Inhibition of EGFR G719S mutant (unknown origin) at 10 uM by Ambit Kinomescan binding assay relative to control
# [11] = Inhibition of KHS1 Lys2 labeling site in human A-375 cells at 5 uM by KiNativ Profiling analysis relative to control; details: condition cancer
# [12] = target: Serine/threonine-protein kinase B-raf (Homo sapiens, UniProt P15056); experiment: Inhibition of BRAF K2 labeling site in human Huh-7 cells at 10 uM by KiNativ Profiling analysis relative to control; type: cell-based
# [13] = target: Interferon-induced, double-stranded RNA-activated protein kinase (Homo sapiens) (UniProt P19525); experiment: Inhibition of PKR ACT labeling site in human Huh-7 cells at 10 uM by KiNativ Profiling analysis relative to control; type: cell-based
# [14] = target: Serine/threonine-protein kinase SIK1 (Homo sapiens) (UniProt P57059); experiment: Inhibition of SIK (unknown origin) at 10 uM by Ambit Kinomescan binding assay relative to control; values are per cent of control
# [15] = target: Mitogen-activated protein kinase kinase kinase 13 (Homo sapiens) (UniProt O43283); experiment: Inhibition of LZK (unknown origin) at 1 uM by Ambit Kinomescan binding assay relative to control
# [16] = target: Serine/threonine-protein kinase 24 (Homo sapiens) (UniProt Q9Y6E0); experiment: Inhibition of MST3 Lys2 labeling site harbouring IHRDIKAANVLLSEHGEVK in human A-375 cells at 5 uM by KiNativ Profiling analysis relative to control; type: cell-based
# [17] = target: Phosphatidylinositol 4,5-bisphosphate 3-kinase catalytic subunit alpha isoform (Homo sapiens) (UniProt P42336); experiment: Inhibition of PIK3CA ATP labeling site in human A-375 cells at 5 uM by KiNativ Profiling analysis relative to control; type: cell-based
# [18] = target: 1-phosphatidylinositol 3-phosphate 5-kinase (Homo sapiens) (UniProt Q9Y2I7); experiment: Inhibition of PIP5K3 ATP labeling site in human A-375 cells at 5 uM by KiNativ Profiling analysis relative to control; type: cell-based
# [19] = target: 5'-AMP-activated protein kinase catalytic subunit alpha-1 (Homo sapiens) (UniProt Q13131); experiment: Inhibition of AMPKa1 Lys1 labeling site in human A-375 cells at 0.5 uM by KiNativ Profiling analysis relative to control; type: cell-based
# [20] = target: Homeodomain-interacting protein kinase 4 (Homo sapiens) (UniProt Q8NE63); experiment: Inhibition of HIPK4 (unknown origin) at 1 uM by Ambit Kinomescan binding assay relative to control; values are per cent of control
# Sequence of Serine/threonine-protein kinase Nek7 (Homo sapiens) (Q8TDX7 whole entry, looked up): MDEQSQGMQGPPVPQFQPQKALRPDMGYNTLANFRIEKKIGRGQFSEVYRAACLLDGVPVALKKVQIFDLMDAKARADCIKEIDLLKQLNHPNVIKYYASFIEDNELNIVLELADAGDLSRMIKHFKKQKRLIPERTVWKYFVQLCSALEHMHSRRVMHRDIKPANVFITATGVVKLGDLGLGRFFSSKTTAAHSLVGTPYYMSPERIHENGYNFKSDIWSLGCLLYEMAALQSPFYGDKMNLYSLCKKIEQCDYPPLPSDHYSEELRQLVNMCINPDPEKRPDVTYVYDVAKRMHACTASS
# Sequence of Serine/threonine-protein kinase SIK1 (Homo sapiens) (P57059 whole entry): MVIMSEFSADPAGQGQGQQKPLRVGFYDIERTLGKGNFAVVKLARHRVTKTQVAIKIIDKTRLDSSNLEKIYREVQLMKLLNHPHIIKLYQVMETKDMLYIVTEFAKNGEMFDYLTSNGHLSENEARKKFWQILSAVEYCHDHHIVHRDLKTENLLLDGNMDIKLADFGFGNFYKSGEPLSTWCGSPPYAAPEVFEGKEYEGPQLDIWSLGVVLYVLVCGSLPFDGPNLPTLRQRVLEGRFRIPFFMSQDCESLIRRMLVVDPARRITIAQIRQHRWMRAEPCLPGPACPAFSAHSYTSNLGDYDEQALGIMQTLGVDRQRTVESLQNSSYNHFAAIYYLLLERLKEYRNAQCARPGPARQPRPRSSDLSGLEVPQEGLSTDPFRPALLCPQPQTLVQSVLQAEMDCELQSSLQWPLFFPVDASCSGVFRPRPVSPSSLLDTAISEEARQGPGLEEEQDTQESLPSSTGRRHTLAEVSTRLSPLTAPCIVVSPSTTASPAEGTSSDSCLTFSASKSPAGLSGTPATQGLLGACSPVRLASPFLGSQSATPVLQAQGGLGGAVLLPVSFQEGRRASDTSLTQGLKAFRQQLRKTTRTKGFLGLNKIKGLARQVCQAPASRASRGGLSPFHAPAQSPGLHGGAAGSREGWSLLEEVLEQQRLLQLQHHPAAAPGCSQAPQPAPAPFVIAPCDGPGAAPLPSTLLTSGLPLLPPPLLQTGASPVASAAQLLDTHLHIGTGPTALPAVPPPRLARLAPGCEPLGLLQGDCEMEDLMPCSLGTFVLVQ
# Sequence of Cyclin-dependent kinase 5 (Homo sapiens) (Q00535 whole entry, looked up): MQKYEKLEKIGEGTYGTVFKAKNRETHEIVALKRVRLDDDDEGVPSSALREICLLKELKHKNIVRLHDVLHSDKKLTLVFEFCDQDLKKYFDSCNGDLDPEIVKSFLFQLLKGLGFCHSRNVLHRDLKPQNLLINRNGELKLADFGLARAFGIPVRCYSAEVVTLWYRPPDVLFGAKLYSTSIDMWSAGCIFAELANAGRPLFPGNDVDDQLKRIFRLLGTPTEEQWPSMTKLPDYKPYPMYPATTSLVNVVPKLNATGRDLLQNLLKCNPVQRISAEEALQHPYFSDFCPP
# Sequence of Ribosomal protein S6 kinase alpha-1 (Homo sapiens) (Q15418 whole entry, the tested form may be a part): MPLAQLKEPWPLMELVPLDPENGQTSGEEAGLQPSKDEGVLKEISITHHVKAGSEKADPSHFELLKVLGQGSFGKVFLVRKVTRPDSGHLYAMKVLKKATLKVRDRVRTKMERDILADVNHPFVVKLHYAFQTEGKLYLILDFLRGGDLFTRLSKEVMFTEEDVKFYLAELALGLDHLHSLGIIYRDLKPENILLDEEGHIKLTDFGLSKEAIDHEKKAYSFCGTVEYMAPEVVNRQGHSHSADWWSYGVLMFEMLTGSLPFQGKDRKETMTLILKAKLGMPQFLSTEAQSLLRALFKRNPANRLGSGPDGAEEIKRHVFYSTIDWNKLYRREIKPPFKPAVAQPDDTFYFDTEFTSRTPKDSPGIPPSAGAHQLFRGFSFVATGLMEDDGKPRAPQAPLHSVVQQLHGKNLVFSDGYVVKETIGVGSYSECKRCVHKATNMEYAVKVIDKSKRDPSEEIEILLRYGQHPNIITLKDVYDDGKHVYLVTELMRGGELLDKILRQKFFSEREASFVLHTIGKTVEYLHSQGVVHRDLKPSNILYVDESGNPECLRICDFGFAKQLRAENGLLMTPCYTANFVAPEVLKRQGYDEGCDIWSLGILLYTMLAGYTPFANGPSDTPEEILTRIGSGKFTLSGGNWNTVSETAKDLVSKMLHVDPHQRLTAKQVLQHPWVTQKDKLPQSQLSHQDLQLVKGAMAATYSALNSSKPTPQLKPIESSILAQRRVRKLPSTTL
# Sequence of Serine/threonine-protein kinase 24 (Homo sapiens) (Q9Y6E0 whole entry, looked up, canonical isoform): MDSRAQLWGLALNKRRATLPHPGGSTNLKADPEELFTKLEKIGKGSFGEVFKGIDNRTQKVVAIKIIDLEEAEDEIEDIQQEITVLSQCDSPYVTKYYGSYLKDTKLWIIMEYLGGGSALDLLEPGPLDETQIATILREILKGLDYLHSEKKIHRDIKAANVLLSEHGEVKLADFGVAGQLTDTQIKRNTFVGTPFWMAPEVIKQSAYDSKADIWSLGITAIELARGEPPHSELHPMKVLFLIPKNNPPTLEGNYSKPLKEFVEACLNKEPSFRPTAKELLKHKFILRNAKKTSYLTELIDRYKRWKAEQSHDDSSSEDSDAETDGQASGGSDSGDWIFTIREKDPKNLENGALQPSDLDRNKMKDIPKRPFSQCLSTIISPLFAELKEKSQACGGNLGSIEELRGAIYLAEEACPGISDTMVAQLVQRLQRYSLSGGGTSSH
# Sequence of Mitogen-activated protein kinase 3 (Homo sapiens) (P27361 whole entry): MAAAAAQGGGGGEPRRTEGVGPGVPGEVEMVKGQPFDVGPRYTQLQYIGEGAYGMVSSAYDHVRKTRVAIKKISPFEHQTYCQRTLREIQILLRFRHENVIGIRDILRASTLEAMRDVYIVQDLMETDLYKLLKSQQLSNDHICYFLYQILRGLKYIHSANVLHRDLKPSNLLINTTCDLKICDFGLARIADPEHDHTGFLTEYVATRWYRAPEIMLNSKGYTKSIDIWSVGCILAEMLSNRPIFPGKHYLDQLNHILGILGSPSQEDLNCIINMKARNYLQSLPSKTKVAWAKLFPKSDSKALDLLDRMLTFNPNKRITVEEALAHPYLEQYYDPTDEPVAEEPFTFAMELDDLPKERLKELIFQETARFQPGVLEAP
# Sequence of Phosphatidylinositol 3-kinase catalytic subunit type 3 (Homo sapiens) (Q8NEB9 whole entry, the tested form may be a part): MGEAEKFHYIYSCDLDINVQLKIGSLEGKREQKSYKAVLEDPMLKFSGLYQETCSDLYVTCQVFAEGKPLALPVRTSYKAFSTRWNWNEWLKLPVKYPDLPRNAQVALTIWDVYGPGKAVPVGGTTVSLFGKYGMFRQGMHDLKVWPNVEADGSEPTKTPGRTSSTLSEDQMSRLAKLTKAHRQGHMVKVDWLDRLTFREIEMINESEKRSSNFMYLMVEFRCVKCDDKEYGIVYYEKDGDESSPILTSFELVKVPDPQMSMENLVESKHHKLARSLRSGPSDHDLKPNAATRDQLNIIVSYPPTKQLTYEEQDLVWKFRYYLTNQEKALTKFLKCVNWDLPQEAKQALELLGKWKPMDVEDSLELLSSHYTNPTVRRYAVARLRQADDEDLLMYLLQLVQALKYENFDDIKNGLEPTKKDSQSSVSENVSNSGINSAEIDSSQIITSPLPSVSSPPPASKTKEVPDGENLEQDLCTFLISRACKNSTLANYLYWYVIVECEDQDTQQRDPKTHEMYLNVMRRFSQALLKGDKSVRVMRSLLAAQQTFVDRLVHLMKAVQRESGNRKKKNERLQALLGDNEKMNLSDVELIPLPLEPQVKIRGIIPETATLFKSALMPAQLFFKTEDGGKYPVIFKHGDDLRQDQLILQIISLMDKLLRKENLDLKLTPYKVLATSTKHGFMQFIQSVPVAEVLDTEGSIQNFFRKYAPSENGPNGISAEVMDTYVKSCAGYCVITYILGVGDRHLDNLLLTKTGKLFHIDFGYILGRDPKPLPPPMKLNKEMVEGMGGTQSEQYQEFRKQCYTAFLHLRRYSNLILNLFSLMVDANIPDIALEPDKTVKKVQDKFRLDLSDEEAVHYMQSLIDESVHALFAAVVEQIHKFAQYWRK
# Sequence of Phosphatidylinositol 4,5-bisphosphate 3-kinase catalytic subunit alpha isoform (Homo sapiens) (P42336 whole entry, canonical isoform): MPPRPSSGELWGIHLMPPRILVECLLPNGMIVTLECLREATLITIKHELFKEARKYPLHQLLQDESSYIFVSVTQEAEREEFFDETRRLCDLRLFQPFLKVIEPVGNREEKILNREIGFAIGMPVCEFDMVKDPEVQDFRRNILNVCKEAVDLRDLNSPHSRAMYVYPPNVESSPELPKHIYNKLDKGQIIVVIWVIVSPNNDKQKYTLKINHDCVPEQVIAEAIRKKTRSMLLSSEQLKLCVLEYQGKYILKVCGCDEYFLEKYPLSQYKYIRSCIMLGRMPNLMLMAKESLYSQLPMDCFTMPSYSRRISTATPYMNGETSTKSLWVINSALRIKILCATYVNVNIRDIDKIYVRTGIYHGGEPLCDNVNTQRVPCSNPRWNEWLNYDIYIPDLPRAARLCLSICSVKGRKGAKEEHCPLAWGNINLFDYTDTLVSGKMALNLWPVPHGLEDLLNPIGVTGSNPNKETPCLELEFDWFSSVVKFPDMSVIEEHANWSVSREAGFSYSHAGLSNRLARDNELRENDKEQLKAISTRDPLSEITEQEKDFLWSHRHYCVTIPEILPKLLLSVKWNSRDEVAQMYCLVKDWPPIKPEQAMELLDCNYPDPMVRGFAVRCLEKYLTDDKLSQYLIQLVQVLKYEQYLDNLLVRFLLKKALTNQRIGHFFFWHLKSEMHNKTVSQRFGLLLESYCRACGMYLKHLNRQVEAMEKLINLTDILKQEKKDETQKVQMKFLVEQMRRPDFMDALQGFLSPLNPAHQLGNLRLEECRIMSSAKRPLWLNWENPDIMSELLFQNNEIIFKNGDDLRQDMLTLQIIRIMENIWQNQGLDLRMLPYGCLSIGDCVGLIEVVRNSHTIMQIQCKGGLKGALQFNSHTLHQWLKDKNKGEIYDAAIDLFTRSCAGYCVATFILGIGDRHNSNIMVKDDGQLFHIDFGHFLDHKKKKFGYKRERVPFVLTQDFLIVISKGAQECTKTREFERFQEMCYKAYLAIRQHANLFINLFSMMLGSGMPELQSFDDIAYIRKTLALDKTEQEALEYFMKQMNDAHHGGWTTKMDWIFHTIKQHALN
compound,measurement,setting,value
CNc1cc(Oc2cc(C(=O)Nc3cc(N4CCN(C)CC4)cc(C(F)(F)F)c3)ccc2C)ncn1,inhibition,[1],2.6%
same,inhibition,[2],-4.1%
same,inhibition,[3],-5.8%
same,inhibition,[4],-4.2%
same,inhibition,[5],-2%
same,inhibition,[6],-1.5%
same,inhibition,[7],-6.9%
same,inhibition,[8],-2.7%
CCN1CCN(Cc2ccc(NC(=O)c3ccc(C)c(Oc4ccnc5[nH]ccc45)c3)cc2C(F)(F)F)CC1,inhibition,[9],inactive
same,inhibition,[10],14%
same,inhibition at 5 µM,[11],42.8%
same,inhibition,[12],5.2%
same,inhibition,[13],40.8%
same,residual activity,[14],5.3%
CCN1CCN(Cc2ccc(NC(=O)c3ccc(C)c(/C=C/c4cnc5[nH]ccc5c4OC)c3)cc2C(F)(F)F)CC1,inhibition,[15],82%
same,inhibition,[16],-0.1%
same,inhibition,[17],56.9%
same,inhibition,[18],7.6%
same,inhibition,[19],20.3%
same,residual activity,[20],16%
